Paper PMC6151383 (Molecules : A Journal of Synthetic Chemistry and Natural …, 2017)
≈ marks a conversion by molar mass, not a printed value.

Experiments:
[1] = system: M. kansasii; set-up: method as in PMID 22365879; conditions: range over M. kansasii strains; cited from earlier work
[2] = system: Klebsiella pneumoniae D 11750/08; set-up: method as in PMID 22365879; conditions: 48 h incubation; cited from earlier work
[3] = system: Mycobacterium tuberculosis 331/88 (H37Rv); set-up: method as in PMID 22365879; conditions: cited from earlier work
[4] = system: Trichosporon asahii 1188; set-up: method as in PMID 22365879; conditions: 48 h incubation; cited from earlier work
[5] = system: M. kansasii 6509/96; set-up: method as in PMID 22365879; conditions: cited from earlier work
[6] = system: Candida glabrata 20/I; set-up: method as in PMID 22365879; conditions: 48 h incubation; cited from earlier work
[7] = system: Mycobacterium avium 330/88; set-up: method as in PMID 22365879; conditions: cited from earlier work
[8] = system: Candida krusei E28; set-up: method as in PMID 22365879; conditions: 48 h incubation; cited from earlier work
[9] = system: Staphylococcus aureus CCM 4516/08; set-up: method as in PMID 22365879; conditions: 48 h incubation; cited from earlier work
[10] = system: Candida tropicalis 156; set-up: method as in PMID 22365879; conditions: 48 h incubation; cited from earlier work
[11] = system: Aspergillus fumigatus 231; set-up: method as in PMID 22365879; conditions: 48 h incubation; cited from earlier work
[12] = system: Trichophyton interdigitale 445; set-up: method as in PMID 22365879; conditions: cited from earlier work
[13] = system: Mycobacterium kansasii 235/80; set-up: method as in PMID 22365879; conditions: cited from earlier work
[14] = system: Staphylococcus epidermidis H 6966/08; set-up: method as in PMID 22365879; conditions: 48 h incubation; cited from earlier work
[15] = system: Enterococcus faecalis J 14365/08; set-up: method as in PMID 22365879; conditions: 48 h incubation; cited from earlier work
[16] = system: ESBL-positive Klebsiella pneumoniae J 14368/08; set-up: method as in PMID 22365879; conditions: 48 h incubation; cited from earlier work
[17] = system: Escherichia coli CCM 4517; set-up: method as in PMID 22365879; conditions: 48 h incubation; cited from earlier work
[18] = system: Candida albicans ATCC 44859; set-up: method as in PMID 22365879; conditions: 48 h incubation; cited from earlier work
[19] = system: Lichtheimia corymbifera 272; set-up: method as in PMID 22365879; conditions: 48 h incubation; cited from earlier work
[20] = system: Pseudomonas aeruginosa CCM 1961; set-up: method as in PMID 22365879; conditions: 48 h incubation; cited from earlier work
[21] = system: Trichophyton interdigitale 445; assay: Antifungal microdilution broth MIC, T. interdigitale; format: cell-based; conditions: SI = IC50 (HepG2)/MIC, Trichophyton interdigitale

O=S(=O)(Nc1ncccn1)c1ccc(N=Cc2cc(Cl)ccc2O)cc1 [Compound 2c, 4-[(5-Chloro-2-hydroxybenzylidene)amino]-N-(pyrimidin-2-yl)benzenesulfonamide]
MIC, M. kansasii strains [1]: 8 to 32 µM
MIC KP 48 h [2]: >500 µM
MIC Mtb. 331/88 14 d ([3]; 14 d incubation): 125 µM (≈ 48.6 µg/mL)
MIC Mtb. 331/88 21 d ([3]; 21 d incubation): 250 µM (≈ 97.2 µg/mL)
MIC TA 48 h [4]: 125 µM (≈ 48.6 µg/mL)
MIC M. kansasii 6509/96 7 d ([5]; 7 d incubation): 16 µM (≈ 6.22 µg/mL)
MIC M. kansasii 6509/96 14 d ([5]; 14 d incubation): 32 µM (≈ 12.4 µg/mL)
MIC M. kansasii 6509/96 21 d ([5]; 21 d incubation): 32 µM (≈ 12.4 µg/mL)
MIC CG 48 h [6]: 125 µM (≈ 48.6 µg/mL)
MIC M. avium 330/88 14 d ([7]; 14 d incubation): 125 µM (≈ 48.6 µg/mL)
MIC M. avium 330/88 21 d ([7]; 21 d incubation): 125 µM (≈ 48.6 µg/mL)
MIC CK 48 h [8]: >500 µM
MIC SA 48 h [9]: 250 µM (≈ 97.2 µg/mL)
MIC CT 48 h [10]: >500 µM
MIC AF 48 h [11]: >500 µM
MIC TI 72 h ([12]; 72 h incubation): >500 µM
MIC TI 120 h ([12]; 120 h incubation): >500 µM
MIC M. kansasii 235/80 7 d ([13]; 7 d incubation): 8 µM (≈ 3.11 µg/mL)
MIC M. kansasii 235/80 14 d ([13]; 14 d incubation): 16 µM (≈ 6.22 µg/mL)
MIC M. kansasii 235/80 21 d ([13]; 21 d incubation): 32 µM (≈ 12.4 µg/mL)
MIC SE 48 h [14]: >500 µM
MIC EF 48 h [15]: >500 µM
MIC KP-E 48 h [16]: >500 µM
MIC EC 48 h [17]: >500 µM
MIC CA 48 h [18]: 125 µM (≈ 48.6 µg/mL)
MIC LC 48 h [19]: >500 µM
MIC PA 48 h [20]: >500 µM
SI for TI [21]: inactive
